Test results taken from patent publication US4005095A, “Substituted thienyl-acetic acid esters” (Innothera, priority 1974, dated 1977).
Where a name gives a salt, the structure may show the parent alone.

Experiments:
[1] = tested on: rat duodenum; experiment: spasmolytic activity, papaverine type (contracting agent barium chloride), technique of MAGNUS; type: cell-based; details: for IC50: Tyrode solution 38° C, concentration causing 50% inhibition of the contraction, compound tested (X), read-out: Spasmolytic activity, papaverine type, ED 50 (X); for Spasmolytic activity, papaverine type, ratio of ED 50 values, reference (R) to compound (X): relative to papaverine hydrochloride
Procedure: The spasmolytic activity was studied on the rat duodenum (1) or on the guinea pig ileum (2), kept alive in an aerated Tyrode solution heated to 38° C, in accordance with the technique of MAGNUS (Archiv. Ges. Physiol., 1905, 180, 1-71).
(1) The contracting agent used was barium chloride and the reference antagonistic agent was papaverine hydrochloride (R).

[2] = tested on: guinea pig ileum; experiment: spasmolytic activity, atropine type (contracting agent acetylcholine chloride), technique of MAGNUS; details: Cavia porcellus, read-out: Spasmolytic activity, atropine type, ED 50 (X)
Text: (2) The contracting agent used was acetylcholine chloride and the reference antagonistic agent was atropine sulphate (R).
Again, the activity of the compounds tested (X) was compared with that of the reference agent chosen (R), by calculating the ratio of their ED 50 values.

[3] = in vivo; details: mouse, in vivo, ip
Procedure: (§1) The acute toxicity was evaluated by intraperitoneal administration to mice. The products were suspended in a dilute pseudo-solution of carboxymethyl-cellulose.
(§2) The mortality was checked over the course of the 7 days which followed the treatment.

[4] = tested on: mice; experiment: in vivo; details: mice, intraperitoneal, mortality over 7 days
Procedure: as §1, §2

In the case of O=C(OCCN1CCCCC1)C(=C1CCCCC1)c1ccsc1 [Example 23, 2-Piperidino-ethyl cyclohexylidene-(thienyl-3)-acetate (hydrochloride)], the IC50 [1] is reported as 2.4 µg/mL, the “Spasmolytic activity, papaverine type, ratio of ED 50 values, reference (R) to compound (X)” value [1] is reported as 1.46 and the IC50 [2] is reported as 0.39 µg/mL. It also gave an LD50 at 168 h [3] of 80 mg/kg.
In the case of Cc1ccc(C(C(=O)OCCCN2CCCC2)c2ccccc2)s1 (stereo not shown) [Example 21, 3-Pyrrolidino-propyl (5-methyl-thienyl-2)-phenyl-acetate (oxalate)], the IC50 [1] is reported as 2.55 µg/mL, the “Spasmolytic activity, papaverine type, ratio of ED 50 values, reference (R) to compound (X)” value [1] is reported as 2.16 and the IC50 [2] is reported as 0.1 µg/mL. The LD50 at 168 h [3] was 100 mg/kg.
In the case of CCN(CC)CCCOC(=O)C(c1ccsc1C)C1CCCCC1 (stereo not shown) [Example 22, 3-Diethylaminopropyl (2-methyl-thienyl-3)-cyclohexyl-acetate hydrochloride], the IC50 [1] is reported as 0.38 µg/mL, the “Spasmolytic activity, papaverine type, ratio of ED 50 values, reference (R) to compound (X)” value [1] is reported as 19.75 and the IC50 [2] is reported as 0.0115 µg/mL. It also gave an LD50 at 168 h [3] of 80 mg/kg.
For CCN(CC)CCCOC(=O)C(c1ccc(C)s1)C1CCCCC1 (stereo not shown) [Example 20, 3-Diethylaminopropyl (5-methyl-thienyl-2)-cyclohexyl-acetate (hydrochloride)], the IC50 [1] was 1.1 µg/mL, the “Spasmolytic activity, papaverine type, ratio of ED 50 values, reference (R) to compound (X)” value [1] was 5.45 and the IC50 [2] was 0.009 µg/mL. It also gave an LD50 at 168 h [3] of 80 mg/kg.
In the case of CC(C[N+]1(C)CCCC1)OC(=O)C(=C1CCCCC1)c1ccsc1.[I-] (stereo not shown) [Example 25, 2-Pyrrolidino-isopropyl cyclohexylidene-(thienyl-3)-acetate (mono-iodomethylate)], the “Spasmolytic activity, papaverine type, ratio of ED 50 values, reference (R) to compound (X)” value [1] is reported as 1 and the “Acute toxicity in mice, intraperitoneal administration, LD 50” value [4] is reported as 80 mg/kg.
With O=C(OCCCN1CCCCC1)C(=C1CCCCC1)c1ccsc1 [Example 24, 3-Piperidino-propyl cyclohexylidene-(thienyl-3)-acetate hydrochloride] the IC50 [1] was 0.8 µg/mL, the “Spasmolytic activity, papaverine type, ratio of ED 50 values, reference (R) to compound (X)” value [1] was 1.56 and the IC50 [2] was 0.8 µg/mL. For the same molecule, the LD50 at 168 h [3] was 150 mg/kg.
